Laboratory results from publication PMC9089363, “Nonpolymeric Citramide-Based Kinetic Hydrate Inhibitors: Good Performance with Just Six Alkylamide Groups” (ACS Omega, 2022).
Where two headings read alike, the source gives them in different places.

How the values were obtained:
[1] = Slow constant cooling (SCC) KHI performance test in high-pressure steel rocking cells; conditions: SNG 76 bar
Description: 2.5 Kinetic Hydrate Inhibitor (KHI) Performance Tests in High-Pressure Rocking Cells
A rig with five high-pressure steel rocking cells was used for carrying out the KHI performance ranking of the new molecules. Each cell has a volume of 40 mL and a steel ball for agitation. The rig was supplied by PSL Systemtechnik GmbH, Germany, but the cells were constructed by Swafas, Norway (Figure 6). As in most of our KHI studies, we used a synthetic natural gas (SNG) mixture in order to compare results with a host of previous KHI studies. The SNG gives an sII hydrate as the thermodynamically stable phase (Table 1). Also, for comparative purposes we used our standard slow constant cooling (SCC) test method.[27] The pressure was approximately 76 bar at the start of each SCC experiment. At this pressure, an average equilibrium temperature (Teq) of 20.2 °C ± 0.05 °C was obtained from five repeat tests by laboratory slow dissociation experiments in the same rocking cells.[20] This agrees very well with a Teq value of 20.5 °C calculated using Calsep’s PVTSim software.
The SCC test procedure was carried out as follows: • 1. First, 20.0 mL of aqueous test solution was added to each steel cell, i.e., half the cell volume. • 2. Air was removed from the cells by alternate vacuum and filling with 1–5 bar SNG gas. • 3. The cells were filled with a 76 bar SNG mixture at room temperature, 20.5 °C. • 4. The cells were cooled from 20.5 to 2 °C at a rate of 1 °C/h while rocking. • 5. Temperature and pressure data for each cell were collected from the sensors and recorded throughout the whole cooling procedure.
Figure 8 illustrates how this is done for one cell. The small pressure drop at the very start of the graph is due to some SNG mixture dissolving in the aqueous phase. After this, the pressure drop is linear until hydrate formation is first detected at a To of 8.4 °C, where the pressure line deviates. Nucleation may have occurred somewhat earlier but is not detectable. Ta is the first temperature at which we observe the maximum rate of gas hydrate formation for the experiment.
At 8.1 °C (Ta), the first fastest pressure drop rate occurs. In this case, the rate of hydrate growth is fast shortly after To. […] The degrees of scattering in To values (≤20%) and Ta values (≤15%) are due to the stochastic nature of gas hydrate formation and are as expected from previous studies.[28] The scattering still allows for a rough ranking of the performance of the KHI samples as long as sufficient tests are carried out for a statistically significant difference using a t-test. Depending on the variation in average To between samples, 5–10 tests suffices in most cases to get a significant difference at the 95% confidence level (p < 0.05).[29]
At least 5 (and up to 10) standard constant cooling tests were employed to get each average To and average Ta value, where To denotes the temperature at which the first macroscopic detectable gas hydrate is formed and Ta denotes the rapid hydrate formation temperature in a solution. The KHI performance of each citramide derivative was compared mostly based on the To values as complete avoidance of gas hydrate formation is the preferred goal for field operations. Thus, a lower To value of a solution corresponds to a better KHI performance. […] However, caution in using this interpretation must be taken, since a low To value will mean a high driving force, which can cause more rapid macroscopic hydrate formation than a higher To value.

[2] = Cloud point (TCl) determination; type: physicochemical; conditions: 2500 ppm aqueous solution, heated ca. 5 °C/min up to 95 °C
Description: A 2500 ppm aqueous solution of each citramide derivative was heated slowly (ca. 5 °C/min), and the first sign of clouding of the solution at a certain temperature was denoted as the cloud point. Any solution that was already opaque at room temperature was first kept in a cooling room at 0–5 °C overnight before heating. Each measurement was repeated at least three times to check the reproducibility of the cloud point.

[3] = Solubility in water (observation); type: physicochemical
[4] = 2500 ppm aqueous solution, cooling 20.5 to 2 °C at 1 °C/h, average of 5-10 tests
[5] = 2500 ppm aqueous solution, cooling 20.5 to 2 °C at 1 °C/h, average of 5-10 tests, lower = better KHI
[6] = 1000 ppm aqueous solution, SCC 1 °C/h
[7] = 2500 ppm + 1 mL of n-decane each cell + 5000 ppm nBGE, SCC 1 °C/h
[8] = 2500 ppm + 1 mL of n-decane each cell, SCC 1 °C/h
[9] = 2500 ppm + 3 mL of n-decane each cell + 5000 ppm nBGE, SCC 1 °C/h

Row | cloud p.t Tcl [2] | Structure (SMILES) | av. Ta (gas hydrate rapid formation temperature) [1, 4] | av. To (gas hydrate onset temperature) [1, 5] | further results
1 | >95 °C | CC(C)CNC(=O)CC(O)(CC(=O)NCC(C)C)C(=O)NCC(C)C [TiBuCAm, 2-Hydroxy-N^1,N^2,N^3-triisobutylpropane-1,2,3-tricarboxamide] | 13.5 °C | – | –
2 | – | CCCCCNC(=O)CC(O)(CC(=O)NCCCCC)C(=O)NCCCCC [TnPeCAm, 2-Hydroxy-N^1,N^2,N^3-tripentylpropane-1,2,3-tricarboxamide] | – | – | solubility in water [3]: not soluble; solubility in water ([3]; listed as Tri-n-pentylcitramide): negligible solubility in water; solubility in water ([3]; listed as tri-n-pentylcitramide): not water soluble
3 | >95 °C | CCCNC(=O)CC(O)(CC(=O)NCCC)C(=O)NCCC [TnPrCAm, 2-Hydroxy-N^1,N^2,N^3-tripropylpropane-1,2,3-tricarboxamide] | 12.3 °C | 16.3 °C | –
4 | >95 °C | CC(C)CNC(=O)CC(CC(=O)NCC(C)C)(OC(=O)CC(=O)OC(CC(=O)NCC(C)C)(CC(=O)NCC(C)C)C(=O)NCC(C)C)C(=O)NCC(C)C [malonyl-TiBuCAm, 1,3-Malonic acid bis(triisobutylcitric acid) amide] | 12.7 °C | – | –
5 | >95 °C | CCCNC(=O)CC(CC(=O)NCCC)(OC(=O)CC(=O)OC(CC(=O)NCCC)(CC(=O)NCCC)C(=O)NCCC)C(=O)NCCC [malonyl-TnPrCAm, 1,3-Malonic acid bis(tripropylcitric acid) amide] | 13.5 °C | 16.3 °C | –
6 | 35 °C | CC(C)CNC(=O)CC(CC(=O)NCC(C)C)(OC(=O)COCC(=O)OC(CC(=O)NCC(C)C)(CC(=O)NCC(C)C)C(=O)NCC(C)C)C(=O)NCC(C)C [oxydiacetyl-TiBuCAm, 2,2′-oxydiacetic acid bis(triisobutylcitric acid) amide] | 8.1 °C | 8.4 °C | av. Ta (gas hydrate rapid formation temperature) [1, 6]: 9.2 °C; av. To (gas hydrate onset temperature) [1, 6]: 9.3 °C; av. Ta (gas hydrate rapid formation temperature) [1, 7]: 7.9 °C; av. To (gas hydrate onset temperature) [1, 7]: 8.1 °C; av. Ta (gas hydrate rapid formation temperature) [1, 8]: 7.2 °C; av. To (gas hydrate onset temperature) [1, 8]: 7.4 °C; av. Ta (gas hydrate rapid formation temperature) [1, 9]: 6.0 °C; av. To (gas hydrate onset temperature) [1, 9]: 6.2 °C
7 | >95 °C | CCCNC(=O)CC(CC(=O)NCCC)(OC(=O)COCC(=O)OC(CC(=O)NCCC)(CC(=O)NCCC)C(=O)NCCC)C(=O)NCCC [oxydiacetyl-TnPrCAm, 2,2′-Oxydiacetic acid bis(tripropylcitric acid) amide] | 12.3 °C | 12.8 °C | –
